Test results taken from article PMC8151276, “An Integrated Approach toward NanoBRET Tracers for Analysis of GPCR Ligand Engagement” (Molecules, 2021).
“And” between values parts separate entries of the source, which are not always exact repeats. Equal values may be shown once. Read-outs that look alike come from different tables or passages of the source.

How the values were obtained:
Format in all cases: binding
[1] = target: T1, FZD4 (Homo sapiens, UniProt Q9ULV1); test: NanoBRET screen HiBiT-FZD4 in HEK293; details: FZD4
T1 construct: purchased Promega (in-house HiBiT-GPCR construct library, NanoBRET)
T1 sequence (Q9ULV1 37-537): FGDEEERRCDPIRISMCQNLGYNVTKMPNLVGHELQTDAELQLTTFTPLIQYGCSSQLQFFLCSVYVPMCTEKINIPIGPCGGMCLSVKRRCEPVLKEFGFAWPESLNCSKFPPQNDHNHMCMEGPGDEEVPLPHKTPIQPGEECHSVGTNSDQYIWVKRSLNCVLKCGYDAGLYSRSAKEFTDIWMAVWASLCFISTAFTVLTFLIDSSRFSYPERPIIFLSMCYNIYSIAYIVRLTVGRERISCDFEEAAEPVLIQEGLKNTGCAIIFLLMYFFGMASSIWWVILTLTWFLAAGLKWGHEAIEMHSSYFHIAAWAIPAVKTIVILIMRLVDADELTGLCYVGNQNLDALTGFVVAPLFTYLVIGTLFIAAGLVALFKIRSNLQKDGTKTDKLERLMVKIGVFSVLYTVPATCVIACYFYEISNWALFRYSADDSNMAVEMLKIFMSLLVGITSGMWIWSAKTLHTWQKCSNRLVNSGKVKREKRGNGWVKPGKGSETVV
Method: Each tracer candidate was screened across the entire library of HiBiT-GPCR constructs using NanoBRET as the detection modality. As depicted in Figure 4A, the specificity of interactions was evaluated through decrease in BRET due to competitive displacement of a bound tracer by excess parental compound. Each tracer was analyzed for binding to each HiBiT-GPCR fusion in the absence and in the presence of competing parental compound. Briefly, HEK293 cells were transfected with HiBiT-GPCR constructs diluted into promoterless DNA to reduce expression and maximize translocation to the cell surface. Each tracer candidate was then screened at concentrations of 1 μM and 0.1 μM across cells expressing these fusions. Cells were treated for 1.5 h with tracer either alone or in the presence of 20 μM competing parental compound (i.e., control). BRET was measured upon addition of purified LgBiT and subsequent complementation with HiBiT genetically fused to a GPCR. The specificity of interactions was assessed through a decrease in BRET signal due to competitive displacement of the bound tracer. To further gauge the robustness of these interactions, the fold response over the control (i.e., BRETtracer/BRETcontrol) was calculated. We chose a 1.5-fold response, which translates to ≥7-fold signal over noise as the minimal threshold required to score an interaction as positive. […]. Below we highlight the screening results obtained for our exemplary fluorescent tracers based on Clozapine, Amitriptyline and AZD1283.
HiBiT-GPCR DNA constructs were diluted in 10 mM Tris pH 8 to a final concentration of 0.01 μg/μL, arrayed in 96-well plates and stored at −20 °C. For transfection, HEK293 cells were suspended in Opti-MEM (without phenol red) supplemented with 2% fetal bovine serum (Seradigm) and 100 units/mL penicillin–streptomycin (Gibco) at a final concentration of 220,000 cells/mL and dispensed into white 96-well plates at 90 μL/well. Subsequent transfections and screens were carried using an Agilent Bravo Automated Liquid Handling Platform. First, the 96-well HiBiT DNA arrays were diluted 25-fold in Opti-MEM (without serum or phenol red) to a final concentration of 0.0004 μg/μL and 20 μL of the diluted DNAs were transferred into new 96-well plates. Next, promoterless carrier DNA (1 μg/μL) was diluted 25-fold (0.04 μg/μL) and then dispensed into the diluted arrays at 20 μL/well. Following brief mixing, Viafect transfection reagent (Promega) diluted 16-fold into Opti-MEM was dispensed into the plates at 40 μL/well. After mixing by pipetting, plates were incubated for 10 min on the pipetting station deck. The DNA-transfection reagent complexes were then added to plates containing cells. To facilitate the screen, 10 μL of DNA-transfection reagent complexes were added in duplicates to the top 4 and bottom 4 rows, resulting in two identical 48-well arrays per plate. Plates with transfected cells were incubated for 18–20 h at 37 °C/5% CO2. A screen of each tracer across the entire library using two different concentrations requires duplicate plates of transfected cells. Depending on the number of tracers being screened, transfections can be scaled up using the same ratios. The next day, for each tracer, four 20× screening solutions in tracer dilution buffer (Promega) were prepared: two duplicates at final concentration of 20 μM and two duplicates at a final concentration of 2 μM. A competing unmodified compound was added to one of each duplicate at a final concentration of 400 μM. The four resulting solutions were diluted 4-fold in Opti-MEM without serum or phenol red to generate 5× solutions (5 µM and 0.5 µM tracer +/− 100 μM competing compound). To screen the library, a BioTek MultiFlo FX liquid dispenser was used to dispense 22.5 µL of tracer solution to the top 4 rows and 22.5 µL tracer + competing compound solution to the 4 bottom rows. Plates were briefly mixed on an orbital shaker and incubated for 1.5 h at room temperature. […]

[2] = target: T2, CHRM3 (Homo sapiens, UniProt P20309); test: NanoBRET screen HiBiT-CHRM3 in HEK293
T2 construct: purchased Promega (in-house HiBiT-GPCR construct library, NanoBRET)
T2 sequence (P20309 whole entry): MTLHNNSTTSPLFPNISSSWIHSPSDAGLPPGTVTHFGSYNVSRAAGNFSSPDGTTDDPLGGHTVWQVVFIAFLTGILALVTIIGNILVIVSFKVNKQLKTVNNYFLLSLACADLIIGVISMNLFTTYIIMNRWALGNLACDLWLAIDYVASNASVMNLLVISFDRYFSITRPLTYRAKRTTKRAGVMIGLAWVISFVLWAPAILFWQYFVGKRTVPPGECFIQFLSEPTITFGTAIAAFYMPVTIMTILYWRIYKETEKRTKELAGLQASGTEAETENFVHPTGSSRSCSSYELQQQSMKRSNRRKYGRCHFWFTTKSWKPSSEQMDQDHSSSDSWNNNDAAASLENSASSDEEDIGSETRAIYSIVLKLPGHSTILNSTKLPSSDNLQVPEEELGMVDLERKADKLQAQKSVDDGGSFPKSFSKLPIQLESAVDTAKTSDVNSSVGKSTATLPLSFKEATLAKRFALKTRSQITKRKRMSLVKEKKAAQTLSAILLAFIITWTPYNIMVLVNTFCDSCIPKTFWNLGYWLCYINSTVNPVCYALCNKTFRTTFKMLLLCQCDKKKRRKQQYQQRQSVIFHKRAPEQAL

[3] = target: T3, CHRM1 (Homo sapiens, UniProt P11229); test: NanoBRET screen HiBiT-CHRM1 in HEK293
T3 construct: purchased Promega (in-house HiBiT-GPCR construct library, NanoBRET)
T3 sequence (P11229 1-460): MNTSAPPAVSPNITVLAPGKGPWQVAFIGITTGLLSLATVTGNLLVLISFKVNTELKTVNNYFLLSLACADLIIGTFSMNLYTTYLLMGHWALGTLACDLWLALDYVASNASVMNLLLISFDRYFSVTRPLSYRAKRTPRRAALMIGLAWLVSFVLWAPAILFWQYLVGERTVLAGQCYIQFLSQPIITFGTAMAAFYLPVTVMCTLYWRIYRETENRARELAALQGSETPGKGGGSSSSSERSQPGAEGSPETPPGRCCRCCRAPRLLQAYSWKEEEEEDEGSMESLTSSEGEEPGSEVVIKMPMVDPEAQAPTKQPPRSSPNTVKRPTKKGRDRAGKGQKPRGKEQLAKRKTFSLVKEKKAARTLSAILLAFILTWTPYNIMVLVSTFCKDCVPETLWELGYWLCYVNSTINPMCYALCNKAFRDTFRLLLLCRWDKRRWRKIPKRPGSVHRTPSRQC

[4] = target: T4, HRH1 (Homo sapiens, UniProt P35367); test: NanoBRET screen HiBiT-HRH1 in HEK293
T4 construct: purchased Promega (in-house HiBiT-GPCR construct library, NanoBRET)
T4 sequence (P35367 whole entry): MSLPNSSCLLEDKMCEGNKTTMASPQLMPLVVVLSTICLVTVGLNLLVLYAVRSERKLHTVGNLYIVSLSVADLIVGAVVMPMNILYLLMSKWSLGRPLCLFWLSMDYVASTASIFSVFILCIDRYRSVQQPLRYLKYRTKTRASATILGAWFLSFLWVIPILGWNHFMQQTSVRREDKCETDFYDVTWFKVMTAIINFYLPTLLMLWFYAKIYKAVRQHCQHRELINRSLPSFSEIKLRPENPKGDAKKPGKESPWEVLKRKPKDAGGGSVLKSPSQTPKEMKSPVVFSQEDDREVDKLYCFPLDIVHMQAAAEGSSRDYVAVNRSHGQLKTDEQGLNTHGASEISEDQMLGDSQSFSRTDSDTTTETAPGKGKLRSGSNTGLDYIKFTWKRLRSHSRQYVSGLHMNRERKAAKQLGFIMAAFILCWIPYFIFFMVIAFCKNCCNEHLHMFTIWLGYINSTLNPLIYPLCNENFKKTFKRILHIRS

Structure (SMILES)	NanoBRET Fold Response ([1]; tracer 0.1μM)	NanoBRET Fold Response ([1]; tracer 1μM)	NanoBRET Fold Response [2]	NanoBRET Fold Response [3]	NanoBRET Fold Response [4]	NanoBRET Fold Response ([2]; CHRM3, tracer 1μM)	NanoBRET Fold Response ([3]; CHRM1, tracer 1μM)	NanoBRET Fold Response ([4]; HRH1, tracer 0.1μM)	NanoBRET Fold Response ([4]; HRH1, tracer 1μM)	NanoBRET Fold Response ([2]; CHRM3, tracer 0.1μM)	NanoBRET Fold Response ([3]; CHRM1, tracer 0.1μM)
O=C(CCOCCOCCOCCOCCNC(=O)CCc1ccc2n1[B-](F)(F)[N+]1=C(c3ccc[nH]3)C=CC1=C2)NCCCN1CCN(C2=Nc3ccccc3Oc3ccc(Cl)cc32)CC1 [Loxapine-a-2-NB590]	0.98	0.89	0.96 and 1.07	0.90 and 1.14	3.64 and 4.76						
COc1ccccc1N1CCN(CCCCN2C(=O)c3ccc(CNC(=O)CCOCCOCCOCCOCCNC(=O)CCc4ccc5n4[B-](F)(F)[N+]4=C(c6ccc[nH]6)C=CC4=C5)cc3C2=O)CC1 [NAN-190-2-NB590]	1.03	1.08		1.02		0.99	1.16	2.49	2.31		
COc1ccccc1N1CCN(CCCCN2C(=O)c3ccc(CNC(=O)CCOCCNC(=O)c4ccc(CNC(=O)CCc5ccc6n5[B-](F)(F)[N+]5=C(c7ccc[nH]7)C=CC5=C6)cc4)cc3C2=O)CC1 [NAN-190-3-NB590]	1.03	1.38				1.12	0.92	2.18	1.84	1.10	0.89
CC(C)N(CC[C@H](c1ccccc1)c1cc(CCNC(=O)CCOCCOCCOCCOCCNC(=O)CCc2ccc3n2[B-](F)(F)[N+]2=C(c4ccc[nH]4)C=CC2=C3)ccc1O)C(C)C [Tolterodine-2-NB590]	0.95	0.96		1.59 and 2.16		1.52		1.08	1.58	1.67	
CC(C)N(CC[C@H](c1ccccc1)c1cc(CCNC(=O)c2ccc(CNC(=O)CCc3ccc4n3[B-](F)(F)[N+]3=C(c5ccc[nH]5)C=CC3=C4)cc2)ccc1O)C(C)C [Tolterodine-BZ-NB590]	0.93	1.07		2.14 and 2.47		1.25		0.99	1.10	1.18	
CCCn1c(=O)c2[nH]c(-c3ccc(OCC(=O)NCCNC(=O)CCOCCNC(=O)c4ccc(CNC(=O)CCc5ccc6n5[B-](F)(F)[N+]5=C(c7ccc[nH]7)C=CC5=C6)cc4)cc3)nc2n(CCC)c1=O [XAC-3-NB590]	1.15	1.12				1.29	0.99	0.95	1.24	0.90	1.11
